Among the test systems are OVCAR-4 ovarian; KM12 colon; HS 578T breast; PC-3 prostate; OVCAR-8 ovarian; CCRF-CEM leukemia; CAKI-1 renal; SK-MEL-5 melanoma; SW-620 colon; SN12C renal.
Experiment in all cases: NCI-60 cell line screen, 48 h

Several values for one entry are separate records, joined by “and”; a condition that tells them apart may be missing. Equal values may be shown once.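 Compound exposure: 48 hours, 5 concentrations, 96-well plates. GI50 marks 50% less growth. Definition used: TGI = concentration required for complete inhibition of growth.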

Here are results for nine compounds from PubChem BioAssay (NCI).

As to `CCCCCCCCCCCCCCCCCCOc1ccccc1CC(=O)OCC[N+](CC)(CC)CC`, the GI50 in the test on OVCAR-4 ovarian was 1.75 µM; with KM12 colon, 1.42 µM; in the test with HS 578T breast, 1.34 µM; in the test on PC-3 prostate, 1.2 µM; in the test on OVCAR-8 ovarian it was 1.69 µM; in the test on CCRF-CEM leukemia it was 1.48 µM. Also, the GI50 in the test with CAKI-1 renal was 1.42 µM; with SK-MEL-5 melanoma, 0.942 µM; in the test with SW-620 colon it was 1.82 µM; with SN12C renal, 1.3 µM. Besides, the TGI with OVCAR-4 ovarian was 7.42 µM; in the test with KM12 colon, 3.86 µM; with HS 578T breast it was 4.55 µM; with PC-3 prostate it was 3.18 µM; in the test on OVCAR-8 ovarian, 8.3 µM; with CCRF-CEM leukemia it was 13.1 µM. Moreover, the TGI was 4.47 µM in the test on CAKI-1 renal, 1.75 µM in the test on SK-MEL-5 melanoma, 7.33 µM in the test with SW-620 colon and 5.68 µM in the test with SN12C renal.

With `OCc1ccc(N2CCc3cc(F)ccc3C2)cc1Cl`, the GI50 in the test with OVCAR-4 ovarian was 0.0277 µM; with KM12 colon it was 13.2 µM; in the test with HS 578T breast it was 21.3 µM; in the test on PC-3 prostate, 11 µM; with OVCAR-8 ovarian it was 7.31 µM; in the test with CCRF-CEM leukemia, 3.9 µM. Moreover, the GI50 in the test with CAKI-1 renal is 1.34 µM; with SK-MEL-5 melanoma it was 3.95 µM; in the test with SW-620 colon it was 0.17 µM; with SN12C renal, 10.9 µM. Moreover, the TGI was found to be 0.354 µM with OVCAR-4 ovarian; 27.3 µM in the test on KM12 colon; 59.1 µM with HS 578T breast; 27.6 µM with PC-3 prostate; 20.8 µM with OVCAR-8 ovarian; 28.9 µM in the test with CCRF-CEM leukemia. Also, the TGI was 13.6 µM in the test with CAKI-1 renal, 20.4 µM in the test on SK-MEL-5 melanoma, 15.8 µM in the test with SW-620 colon and 23.2 µM with SN12C renal.

On to `CCCCCCCCCC(CCCC(O)CC(=O)O)OC1OC(COC2OC(C)C(OC(C)=O)C(O)C2O)C(O)C(O)C1OC1OC(CO)C(O)C(O)C1OC1OC(C)C(OC(=O)CC(C)C)C(O)C1O` (stereo not drawn), for which the GI50 in the test on OVCAR-4 ovarian, in the test with KM12 colon, in the test on HS 578T breast, in the test with PC-3 prostate, with OVCAR-8 ovarian and in the test with CCRF-CEM leukemia was > 35 µM in each case. Further, the GI50 in the test on CAKI-1 renal, with SK-MEL-5 melanoma, in the test with SW-620 colon and with SN12C renal was > 35 µM in each case. Besides, the TGI in the test with OVCAR-4 ovarian, with KM12 colon, in the test with HS 578T breast, in the test on PC-3 prostate, in the test with OVCAR-8 ovarian and in the test with CCRF-CEM leukemia was > 35 µM in each case. Moreover, the TGI in the test with CAKI-1 renal, in the test on SK-MEL-5 melanoma, in the test with SW-620 colon and in the test with SN12C renal was > 35 µM in each case.

With `CC(c1ccccc1)[C@@H](C(=O)Nc1ccc(I)cc1F)N1C(=O)N[C@H](c2ccc(OC[C@H](O)CO)cc2)C1=O` (stereo partly drawn), the GI50 with OVCAR-4 ovarian is 8.97 µM; in the test on KM12 colon, 2.4 µM; with HS 578T breast, 16.3 µM; in the test with PC-3 prostate it was > 15.4 µM; in the test on OVCAR-8 ovarian, > 15.9 µM; in the test with CCRF-CEM leukemia, 14.3 µM. In addition, the GI50 with CAKI-1 renal is 16.2 µM; in the test on SK-MEL-5 melanoma, 0.85 µM; in the test on SW-620 colon, 1.09 µM; with SN12C renal, 6.14 µM. Besides, the TGI with OVCAR-4 ovarian, in the test on KM12 colon, in the test with HS 578T breast, in the test with PC-3 prostate, with OVCAR-8 ovarian and in the test with CCRF-CEM leukemia was > 25 µM each time. Further, the TGI in the test with CAKI-1 renal, in the test with SK-MEL-5 melanoma, with SW-620 colon and in the test on SN12C renal was > 25 µM each time.

Take `NC1=NC(=O)/C(=C/c2ccc3ncccc3c2)S1`: the GI50 in the test on OVCAR-4 ovarian, with KM12 colon, in the test with HS 578T breast, in the test with PC-3 prostate, in the test with OVCAR-8 ovarian and in the test with CCRF-CEM leukemia was > 25 µM in each case. In addition, the GI50 in the test on CAKI-1 renal, with SK-MEL-5 melanoma, in the test on SW-620 colon and in the test on SN12C renal was > 25 µM throughout. Moreover, the TGI in the test with OVCAR-4 ovarian, in the test with KM12 colon, in the test on HS 578T breast, in the test with PC-3 prostate, in the test on OVCAR-8 ovarian and in the test with CCRF-CEM leukemia was > 25 µM throughout. The TGI with CAKI-1 renal, with SK-MEL-5 melanoma, in the test with SW-620 colon and with SN12C renal was > 25 µM in each case.

As to `COc1ccc2nc3cc([N+](=O)[O-])ccc3c(NNc3ccccc3)c2c1`, the GI50 in the test with OVCAR-4 ovarian was 11.6 µM; with KM12 colon, 6.25 µM; with PC-3 prostate, 10.4 µM; in the test with OVCAR-8 ovarian, 6.77 µM; in the test on CCRF-CEM leukemia it was 10.9 µM; in the test on SK-MEL-5 melanoma, 13.2 µM. The GI50 in the test on SW-620 colon is 19.8 µM; with SN12C renal, 18.9 µM. The TGI with OVCAR-4 ovarian is 36.1 µM and > 100 µM; with KM12 colon it was 19.6 µM and 32.4 µM; in the test on HS 578T breast, > 100 µM; in the test on PC-3 prostate it was 40.4 µM and > 100 µM; in the test with OVCAR-8 ovarian it was 22.5 µM and > 100 µM; with CCRF-CEM leukemia, > 100 µM. For the same compound, the TGI is 35.1 µM and > 100 µM in the test on CAKI-1 renal; 27.3 µM and 40.7 µM in the test on SK-MEL-5 melanoma; > 100 µM with SW-620 colon; 71.1 µM and > 74.9 µM with SN12C renal.

In the case of `O=CNc1ccc(S(=O)(=O)c2ccc(NC=O)cc2)cc1`, the TGI in the test on OVCAR-4 ovarian, in the test on KM12 colon, in the test on HS 578T breast, in the test with PC-3 prostate, with OVCAR-8 ovarian and in the test with CCRF-CEM leukemia was > 100 µM throughout. Besides, the TGI in the test on CAKI-1 renal, in the test on SK-MEL-5 melanoma, in the test on SW-620 colon and in the test on SN12C renal was > 100 µM each time.

With `O=c1ccc(=O)n(-c2ccccc2)[nH]1`, the TGI in the test on OVCAR-4 ovarian, with KM12 colon, in the test with HS 578T breast, with PC-3 prostate, in the test with OVCAR-8 ovarian and in the test on CCRF-CEM leukemia was > 100 µM in each case. In addition, the TGI in the test on CAKI-1 renal, with SK-MEL-5 melanoma, in the test with SW-620 colon and in the test on SN12C renal was > 100 µM throughout.

As for `COc1ccc(C(=O)O[C@H]2[C@H](O[C@H]3[C@@H](O)COC(O[C@H]4C[C@H]5[C@@H]6CC=C7C[C@@H](O)CC[C@]7(C)[C@H]6CC[C@]5(C)[C@H]4[C@H](C)C(=O)CCC(C)C)[C@@H]3OC(C)=O)OC[C@@H](O)[C@@H]2O)c(C)c1` (stereo partly drawn), the GI50 with OVCAR-4 ovarian is 0.717 µM; in the test with KM12 colon it was 0.0674 µM; with HS 578T breast, < 0.01 µM; in the test on PC-3 prostate it was < 0.01 µM; in the test with OVCAR-8 ovarian, 20.1 µM; in the test on CCRF-CEM leukemia, < 0.01 µM. In addition, the GI50 in the test with CAKI-1 renal is < 0.01 µM; in the test with SK-MEL-5 melanoma, < 0.01 µM; in the test with SW-620 colon it was < 0.01 µM; in the test on SN12C renal, 11.7 µM. In addition, the TGI with OVCAR-4 ovarian was > 100 µM; with KM12 colon it was 21.3 µM; with HS 578T breast it was 0.0282 µM; in the test with PC-3 prostate, 2.14 µM; in the test with OVCAR-8 ovarian, > 100 µM; with CCRF-CEM leukemia it was 0.13 µM. The TGI in the test on CAKI-1 renal came to 1.08 µM; with SK-MEL-5 melanoma, 0.0141 µM; in the test with SW-620 colon it was 0.187 µM; in the test with SN12C renal it was 29.7 µM.
